# Measured values: publication PMC11396062, “The n-Butanol Extract Obtained from the Inner Bark of Tabebuia rosea (Bertol.) DC, Specioside, and Catalposide Induce Leukemia Cell Apoptosis in the Presence of Apicidin” (Molecules, 2024)
# Read-outs that look alike come from different tables or passages of the source.
# How the values were obtained:
# THP-1 cells [1] = test: Fluorescence microscopy of nuclear morphology (propidium iodide and Hoechst staining); format: cell-based, human; conditions: THP-1, APC pretreatment, extract 25 μg/mL
# Protocol: Fluorescence microscopy was used to observe cell nuclear morphology, followed by propidium iodide (50 µg/mL) and Hoechst 333342 (1 mg/mL) staining. THP-1 cells (1 × 10^5 cells/well) were treated with fresh media (control) and with 25, 50, or 100 µg/mL extract for 24 h; 400 µM doxorubicin was used as a positive control. Further, 10 microliters of the cell suspension was mixed with 90 µL of the dye, incubated in a water bath for 5 min at 37 °C, and wrapped in aluminum foil. The cells were examined under an Olympus IX53 fluorescence microscope (Olympus Corporation, Tokyo, Japan). The following formula was used to calculate the percentage of apoptotic cells.
# THP-1 cells [2] = test: Flow cytometric apoptosis, Annexin V-CF647/7-AAD; format: cell-based, human; conditions: THP-1, 24 h, apicidin pretreatment
# Protocol: In 96-well plates, 8 × 10^4 cells were treated with 25, 50, and 100 µg/mL extract and 400 µM doxorubicin (positive control) for 24 and 48 h. The cells were washed with 1X PBS, and apoptotic cells were detected by staining with 100 µL of Annexin V-CF647 and 5 µL of the 7-AAD Apoptosis Annexin Red Kit (FCCH100108 FlowCellect, Millipore, Darmstadt, Germany). The cells were incubated at room temperature for 15 min in the dark and analyzed on a Guava Millipore flow cytometer (Merck Millipore, Bedford, MA, USA) using InCyte software (version 3.1, Merck Millipore). The percentage of annexin V-positive cells was evaluated.
# THP-1 cells [3] = test: Cell cycle analysis by flow cytometry; format: cell-based, human; conditions: THP-1, APC pretreatment
# Protocol: After treatment with the extract, 7 × 10^4 cells were harvested, washed with PBS, fixed with 200 µL of ice-cold 70% ethanol, and maintained at 4 °C for 4 h before staining. The cell pellet was washed in 1X PBS, resuspended in 200 µL of Guava Cell Cycle reagent (#4500-0220, Millipore), and incubated in the dark at 37 °C for 30 min before analysis with a Guava flow cytometer (Merck Millipore, Bedford, MA, USA) using InCyte software (version 3.1, Merck Millipore).. Centrifugation was performed at 1200 rpm for 5 min at room temperature for each step.
# THP-1 cells [4] = test: Mitochondrial membrane potential (JC-1); format: cell-based, human; conditions: THP-1, JC-1, 24 h
# Protocol: The Λᴪm was measured using a Guava Mitochondrial Depolarization Kit (4500-0250 Millipore, Darmstadt, Germany). After pretreatment with 1 µM apicidin for 24 h, the cells were exposed to various concentrations of the extract (25, 50, and 100 µg/mL) for 24 h. The cells were collected and suspended in 100 µL of PBS containing JC-1 and 7-AAD after incubation at 37 °C for 15 min. The fluorescence intensity of the cells was analyzed in a Guava Millipore flow cytometer (Merck Millipore, Bedford, MA, USA) using InCyte software (version 3.1, Merck Millipore).
# [5] = system: Peripheral blood mononuclear cells (PBMCs); test: MTT cell viability assay, PBMC (normal cells); format: cell-based; conditions: Homo sapiens, n = 3
# Protocol: Jurkat and THP-1 cell lines were purchased from the American Type Culture Collection (ATCC, Rockville, MD, USA); Jurkat is a human lymphocytic cell line representing acute T-cell leukemia, and THP-1 is a monocytic cell line that represents acute myelogenous leukemia (AML). Jurkat and THP-1 cells were maintained in RPMI 1640 medium (Sigma) supplemented with 10% heat-inactivated fetal bovine serum (FBS) (Gibco Cat No. 16140071, Waltham, MA USA), 200 μg/mL penicillin, 200 μg/mL streptomycin, 400 μg/mL neomycin (GIBCO, Cat No. 15640-055), 5 μg/mL amphotericin, and 1 mM sodium pyruvate (all from Sigma Chemical Co., Saint Louis, MO, USA; Cat Nos. A9528-50 MG, M7522-100ML, and S8636-100ML, respectively). The cells were maintained at 37 °C in a humidified atmosphere with 5% CO2. The culture medium was exchanged with fresh medium every 2–3 days. Peripheral blood mononuclear cells (PBMCs) were isolated from normal human venous blood. Further, 10 milliliters of human blood was mixed with 10 mL of RPMI-1640 containing 50 µL of heparin and gradually poured over 1 mL of HISTOPAQUE®-1119 (Sigma). The plasma was removed by centrifugation at 3000 rpm for 30 min. The peripheral blood mononuclear cell-containing layer was collected with a pipette and diluted in 4 mL of PBS. PBMCs were harvested by centrifugation at 1500 rpm for 10 min at room temperature, resuspended in RPMI-1640 with 10% FBS, and incubated at 37 °C in 5% CO2 humidified air.
# Cell viability was determined by measuring the mitochondrial activity of live cells via the metabolism of the tetrazolium substrate 3-(4,5-dimethylthiazol-2-yl)-2,5-diphenyl tetrazolium bromide (MTT) and converting it to purple formazan crystals. Briefly, the cells (2 × 10^4 cells/well) were treated with 25, 50, 100, 200, or 400 μg/mL extract diluted in DMSO (at a final concentration of 0.5%) and incubated for 12, 24, or 48 h. Catalposide and specioside were tested at concentrations of 20, 50, and 100 μg/mL for 12, 24, and 48 h. For apicidin, 0.5, 1, and 2 μM apicidin were tested for 24 and 48 h. Doxorubicin was used as a reference standard drug (positive control). After treatment, the medium was discarded; 200 μL of RPMI 1640 medium without phenol red containing 0.5 mg/mL MTT (Sigma Chemical Co., Saint Louis, MO, USA; Cat. No. M2128-500MG) was then added to each well. The plates were incubated for four hours at 37 °C with 5% CO2 in a humidified atmosphere. The medium was discarded, and 100 μL of DMSO was added to solubilize the formazan crystals. The absorbance was measured with an ELISA microplate reader at 492 nm (ELx800; BioTek Instruments Inc., Winooski, VT, USA). The percentage of viable cells was calculated on the basis of the nontreated control (taken as 100%). The IC50 (concentration causing a 50% reduction in cellular viability) values for all the tested compounds were evaluated in Excel using the nonlinear regression curve method. Three independent assays were performed, each in triplicate.
# Jurkat cells = test: MTT cell viability assay, Jurkat cells; format: cell-based, human; conditions: for IC50: Homo sapiens, Jurkat, MTT, n = 3; for SI (selectivity index): IC50 PBMC / IC50 Jurkat
# Protocol: (§1) Jurkat and THP-1 cell lines were purchased from the American Type Culture Collection (ATCC, Rockville, MD, USA); Jurkat is a human lymphocytic cell line representing acute T-cell leukemia, and THP-1 is a monocytic cell line that represents acute myelogenous leukemia (AML). […] Cat Nos. […] The cells were maintained at 37 °C in a humidified atmosphere with 5% CO2. The culture medium was exchanged with fresh medium every 2-3 days. Peripheral blood mononuclear cells (PBMCs) were isolated from normal human venous blood. Further, 10 milliliters of human blood was mixed with 10 mL of RPMI-1640 containing 50 μL of heparin and gradually poured over 1 mL of HISTOPAQUE®-1119 (Sigma). The plasma was removed by centrifugation at 3000 rpm for 30 min. The peripheral blood mononuclear cell-containing layer was collected with a pipette and diluted in 4 mL of PBS. PBMCs were harvested by centrifugation at 1500 rpm for 10 min at room temperature, resuspended in RPMI-1640 with 10% FBS, and incubated at 37 °C in 5% CO2 humidified air. […] Doxorubicin was used as a reference standard drug (positive control). After treatment, the medium was discarded; 200 μL of RPMI 1640 medium without phenol red containing 0.5 mg/mL MTT (Sigma Chemical Co., Saint Louis, MO, USA; Cat. No. […] The plates were incubated for four hours at 37 °C with 5% CO2 in a humidified atmosphere. The medium was discarded, and 100 μL of DMSO was added to solubilize the formazan crystals. The absorbance was measured with an ELISA microplate reader at 492 nm (ELx800; BioTek Instruments Inc., Winooski, VT, USA). The percentage of viable cells was calculated on the basis of the nontreated control (taken as 100%). […] Three independent assays were performed, each in triplicate. The selectivity index corresponds to the ratio of the IC50 value calculated for the activity of synthesized compounds on a regular cell line (PBMCs) to that of the IC50 calculated for cancer cell lines (Jurkat and THP-1). Values greater than two were optimal for an efficient selectivity index.
# THP-1 cells [6] = test: MTT cell viability assay, THP-1 cells; format: cell-based, human; conditions: for IC50: Homo sapiens, MTT, n = 3, read-out: IC50
# Protocol: as §1
Compound,apoptosis (nuclear morphology) after APC pretreatment (THP-1 cells [1]),"percentage of apoptotic cells, apicidin pretreatment compared with catalposide or specioside treatment (THP-1 cells [2])",G0/G1 phase arrest with APC pretreatment (THP-1 cells [3]),depolarization of the mitochondrial membrane (THP-1 cells [4]),IC50 ([5]; 12 h),IC50 ([5]; 24 h),IC50 ([5]; 48 h),IC50 (Jurkat cells; 12 h),IC50 (Jurkat cells; 24 h),IC50 (Jurkat cells; 48 h),SI (selectivity index) (Jurkat cells; 12 h),SI (selectivity index) (Jurkat cells; 24 h),SI (selectivity index) (Jurkat cells; 48 h),"IC50 (THP-1 cells [6]; THP-1, 12 h)","IC50 (THP-1 cells [6]; THP-1, 24 h)","IC50 (THP-1 cells [6]; THP-1, 48 h)","SI (selectivity index) (THP-1 cells [6]; IC50 PBMC / IC50 THP-1, 12 h)","SI (selectivity index) (THP-1 cells [6]; IC50 PBMC / IC50 THP-1, 24 h)","SI (selectivity index) (THP-1 cells [6]; IC50 PBMC / IC50 THP-1, 48 h)"
"CCC(=O)CCCCC[C@@H]1NC(=O)[C@H]2CCCCN2C(=O)[C@H]([C@@H](C)CC)NC(=O)[C@H](Cc2cn(OC)c3ccccc23)NC1=O [APC, apicidin]",increased apoptosis,increased the percentage of apoptotic cells,increased,decreased mitochondrial membrane polarization,,,,,,,,,,,,,,,
"COc1cccc2c1C(=O)c1c(O)c3c(c(O)c1C2=O)C[C@@](O)(C(=O)CO)C[C@@H]3O[C@H]1C[C@H](N)[C@H](O)[C@H](C)O1 [Doxorubicin, reference compound]",,,,,1.36 ± 0.15 µg/mL,0.224 ± 0.1 µg/mL,0.018 ± 0.1 µg/mL,0.339 ± 1.2 µg/mL,0.258 ± 0.1 µg/mL,0.05 µg/mL,4.02,0.86,0.36,1.27 ± 0.2 µg/mL,0.189 ± 0.1 µg/mL,0.005 ± 0.01 µg/mL,1.07,1.183,3.6
